{"source": "patent US20210346319A1", "about": "“Pharmaceutical Compositions of R-(+)-Propranolol in Enantiomeric Excess and Therapeutic Uses Related Thereto” (Emory University, priority 2018, published 2021)", "key": {"[1]": {"test_system": "Angptl4", "experiment": "Gene array of treated hemangioma stem cells (HemSC)", "type": "cell-based, human", "settings": "for Angptl4 gene regulation on gene array: HemSC cells vs vehicle control; for effectiveness in downregulating Angptl4 compared with S-propranolol: hemangioma stem cells"}, "[2]": {"test_system": "Angptl4", "experiment": "Western blot analysis of Angptl4 in HemSC cells"}, "[3]": {"test_system": "Angptl4", "settings": "bEnd.3 cells, FIG. 1"}, "[4]": {"test_system": "bEnd.3 hemangioma", "experiment": "bEnd.3 hemangioma xenograft growth in nude mice", "type": "in vivo", "settings": "p=0.014", "method": "The xenograft model was developed and approved by the Institutional Animal Care and Use Committee of Emory University. bEnd.3 cell suspension in growth medium was inoculated in the right flank of athymic Nu/Nu nude male mice purchased from the Charles River Laboratories at 2.5×10^5 cells/mouse (n=5 per group). Control or R-propranolol was administered intraperitoneally five times a week at 3.5 mg/kg/day. R-propranolol treatment was initiated on the second day after the tumor cell injection.\nTo elucidate the signaling cascade independent of beta blockade in hemangioma formation, tie-2-deficient mouse hemangioma cell line, bEnd.3 was xenografted and treated with or without R-propranolol, isomer deficient in beta blockade activity."}, "[5]": {"test_system": "bEnd.3 tumors", "experiment": "RNAseq analysis of R-propranolol vs vehicle treated tumors", "type": "in vivo, mice", "excerpt": "In order to gain an understanding of the mechanism of action of R-propranolol in vivo, vehicle and R-propranolol treated tumors were subjected to RNA seq analysis. […] The APOA1 gene expresses a protein called apolipoprotein A-I (apoA-I). ApoA-I is a component of high-density lipoprotein (HDL) which transports cholesterol and phospholipids through the bloodstream for excretion by the liver beneficial for cardiovascular health."}, "[6]": {"test_system": "Angptl4", "experiment": "Downregulation of VEGF/Angptl4 by propranolol and its isomers (summary statements)", "type": "cell-based"}, "[7]": {"test_system": "bEnd.3 hemangioma cells", "experiment": "Seahorse analysis of respiration in bEnd.3 cells", "settings": "for basal respiration / spare respiratory capacity: FIG. 5B; for maximal respiration: compared to vehicle control"}, "[8]": {"test_system": "VEGF", "experiment": "VEGF levels in infants receiving propranolol for hemangioma of infancy", "type": "in vivo, human", "settings": "saliva of infants with hemangiomas, hydrochloride", "excerpt": "(§1) Genetic studies of hemangiomas have not elucidated a common genetic cause, as opposed to other vascular lesions, such as vascular malformations and angiosarcomas, in which genetic mutations have been found. Cytokines have been found in hemangiomas of infancy, including vascular endothelial growth factor (VEGF) and Angiopoietin-2 (Ang-2). The role of these factors in hemangiomas are not fully understood, especially given that Ang-2 can serve as a growth factor or mediate endothelial apoptosis depending on the context. A series of infants were studied who received propranolol for treatment of hemangioma of infancy."}, "[9]": {"test_system": "Angiopoietin-2 (Ang-2)", "experiment": "Ang-2 levels in infants receiving propranolol for hemangioma of infancy", "type": "in vivo, human", "settings": "saliva of infants with hemangiomas", "excerpt": "as §1"}, "[10]": {"test_system": "hemangioma of infancy", "settings": "infant who received propranolol for cardiac disease; cited from earlier work"}, "[11]": {"settings": "RNAseq treated vs vehicle tumors"}}, "note": "Entries after “also recorded” stand apart in the source; their conditions may differ.", "data": [{"molecule": "CN(C)c1ccc(C(=C2C=CC(=[N+](C)C)C=C2)c2ccc(N(C)C)cc2)cc1", "note": "[gentian violet]", "values": [{"measurement": "Angptl4 gene regulation on gene array", "setting": "[1]", "result": "downregulated; also recorded: most regulated gene"}, {"measurement": "Angptl4 expression, Western blot", "setting": "[2]; FIG. 1", "result": "suppressed Angptl4"}, {"measurement": "Angptl4 expression, Western blot", "setting": "[2]; FIG. 1, listed as Gentian violet", "result": "downregulated Angptl4"}, {"measurement": "Angptl4 protein expression", "setting": "[3]", "result": "much reduced"}]}, {"molecule": "CC(C)NC[C@@H](O)COc1cccc2ccccc12", "note": "[R-propranolol, (R)-(+)-1-(isopropylamino)-3-(naphthalen-1-yloxy)propan-2-ol]", "values": [{"measurement": "Angptl4 gene regulation on gene array", "setting": "[1]", "result": "downregulated; also recorded: most regulated gene"}, {"measurement": "effectiveness in downregulating Angptl4 compared with S-propranolol", "setting": "[1]", "result": "far more effective"}, {"measurement": "effectiveness in downregulating Angptl4 compared with S-propranolol", "setting": "[1]; listed as R(+)-propranolol", "result": "More Effective"}, {"measurement": "tumor volume", "setting": "[4]; 3.5 mg/kg/day intraperitoneally five times a week, control 593.32, n=5 per group", "result": 37.60, "unit": "mm3"}, {"measurement": "effect on bEnd.3 hemangioma tumor growth in vivo", "setting": "[4]; xenograft in mice, within two weeks of tumor development", "result": "active in vivo; also recorded: significant tumor volume reduction; also recorded: significantly reduced the tumor volume; also recorded: inhibited the growth; also recorded: significant inhibition of tumor growth"}, {"measurement": "APOA1 expression", "setting": "[5]; [11]", "result": "induced; also recorded: upregulated"}, {"measurement": "BHMT expression", "setting": "[5]; [11]", "result": "most highly regulated gene; also recorded: upregulated; also recorded: most upregulated"}, {"measurement": "Egr-1 expression", "setting": "[5]; [11]", "result": "elevated; also recorded: upregulated"}, {"measurement": "choline metabolism pathway (KEGG analysis)", "setting": "[5]; [11]", "result": "the pathway affected; also recorded: highly affected"}, {"measurement": "Eno4 expression", "setting": "[5]; RNAseq, FIG. 4", "result": "downregulated"}, {"measurement": "Faim2 expression", "setting": "[5]; RNAseq, FIG. 4", "result": "downregulated"}, {"measurement": "Hunk expression", "setting": "[5]; RNAseq, FIG. 4", "result": "downregulated"}, {"measurement": "number of RNA transcripts significantly downregulated", "setting": "[5]; RNAseq, FIG. 4", "result": "Seven"}, {"measurement": "number of RNA transcripts upregulated", "setting": "[5]; RNAseq, FIG. 4", "result": "seventeen"}, {"measurement": "activity against Angptl4 compared with S-propranolol", "setting": "[6]; endothelial cells", "result": "greater downregulation; also recorded: more active"}, {"measurement": "Angptl4 expression, Western blot", "setting": "[2]; FIG. 1", "result": "reduced expression of Angptl4"}, {"measurement": "Angptl4 expression, Western blot", "setting": "[2]; FIG. 1, listed as R-isomer", "result": "suppressed Angptl4"}, {"measurement": "respiration compared with S-propranolol", "setting": "[7]; FIG. 5A", "result": "stronger respiration"}, {"measurement": "basal respiration", "setting": "[7]", "result": "increased"}, {"measurement": "spare respiratory capacity", "setting": "[7]", "result": "increased"}, {"measurement": "maximal respiration", "setting": "[7]; FIG. 5A", "result": "substantially increased"}, {"measurement": "Angptl4 protein expression", "setting": "[3]", "result": "markedly reduced"}]}, {"molecule": "CC(C)NCC(O)COc1cccc2ccccc12", "note": "(stereo not drawn) [S-propranolol, reference compound]", "values": [{"measurement": "Angptl4 gene regulation on gene array", "setting": "[1]", "result": "downregulated; also recorded: most regulated gene"}, {"measurement": "Angptl4 expression, Western blot", "setting": "[2]; FIG. 1", "result": "not"}, {"measurement": "Angptl4 expression, Western blot", "setting": "[2]; FIG. 1, listed as S isomer", "result": "had no effect"}, {"measurement": "basal respiration", "setting": "[7]", "result": "increased"}, {"measurement": "spare respiratory capacity", "setting": "[7]", "result": "increased"}, {"measurement": "maximal respiration", "setting": "[7]; FIG. 5A", "result": "substantially increased"}, {"measurement": "Angptl4 protein expression", "setting": "[3]", "result": "slightly elevated"}]}, {"molecule": "CC(C)NCC(O)COc1cccc2ccccc12.Cl", "note": "(racemic) [propranolol, (±)-1-[(1-methylethyl)amino]-3-(1-naphthalenyloxy)-2-propanol hydrochloride]", "values": [{"measurement": "N4RA1 (Nur77) expression", "setting": "[5]; [11]", "result": "upregulated"}, {"measurement": "VEGF levels", "setting": "[8]", "result": "reduced"}, {"measurement": "VEGF levels", "setting": "[8]; listed as Propranolol", "result": "downregulates"}, {"measurement": "Ang-2 levels", "setting": "[9]", "result": "not"}, {"measurement": "VEGF/Angplt4 downregulation", "setting": "[6]", "result": "coordinately downregulates"}, {"measurement": "hemangioma of infancy, clinical course", "setting": "[10]", "result": "regression"}]}]}
